Results from US9145354B2, “Pharmaceutical compounds” (priority 2011, dated 2015).
Structures can show the parent of a compound that is named as a salt. Where two headings read alike, the source gives them in different places.

Target: full length NS3/4a (Hepatitis C virus genotype 1b (isolate BK) (HCV), UniProt P26663)
Assay: NS3 Protease Assay (Example A), FRET-based
Assay type: biochemical
Outline: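 Full-length NS3/4a, made in-house, with an NS4A/B-derived peptide substrate carrying QXL520 quencher and 5-FAMsp fluorophore. Buffer 50 mM Tris pH8, 20 mM DTT, 1% CHAPS, 10% glycerol, 5% DMSO. Fluorescence followed 30 min at room temperature; IC50 from initial rates of replicate curves.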

[1] = HCV NS3 protease assay, full length NS3/4a, read-out: Assay A IC50 (μM) average
[2] = read-out: IC50 against the protease activity of the full length NS3/4a
[3] = stated as IC50 less than 30 μM or at least 40% inhibition at a concentration of 100 μM, read-out: IC50 against the protease activity of the full length NS3/4a

full length NS3/4a, sequence (P26663 1027-1657): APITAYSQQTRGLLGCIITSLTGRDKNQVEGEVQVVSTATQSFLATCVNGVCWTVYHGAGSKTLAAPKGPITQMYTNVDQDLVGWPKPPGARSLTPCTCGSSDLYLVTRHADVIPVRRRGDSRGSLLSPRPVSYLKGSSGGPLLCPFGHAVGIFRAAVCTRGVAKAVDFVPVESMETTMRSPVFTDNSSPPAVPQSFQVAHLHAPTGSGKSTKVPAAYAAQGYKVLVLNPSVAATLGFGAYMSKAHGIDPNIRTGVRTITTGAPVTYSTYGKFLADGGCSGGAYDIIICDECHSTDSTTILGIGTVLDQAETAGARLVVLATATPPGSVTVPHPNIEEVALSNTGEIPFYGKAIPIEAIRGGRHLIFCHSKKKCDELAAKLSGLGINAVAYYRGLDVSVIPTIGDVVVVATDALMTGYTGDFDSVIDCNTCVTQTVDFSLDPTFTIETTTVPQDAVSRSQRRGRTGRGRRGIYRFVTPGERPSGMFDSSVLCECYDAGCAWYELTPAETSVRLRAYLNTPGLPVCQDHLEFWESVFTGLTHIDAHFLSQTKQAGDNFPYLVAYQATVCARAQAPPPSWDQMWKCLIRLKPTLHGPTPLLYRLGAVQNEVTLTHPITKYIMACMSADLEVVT

Row | Structure (SMILES) | IC50 [1] | IC50 [2] | also measured
1 | CC[C@@H](N[C@H](C)CC(N)=O)c1ccc(Cl)c(C(=O)c2ccc(-n3cccn3)nc2)c1F [Example 140, (3R)-3-{[(1R)-1-(4-chloro-2-fluoro-3-{[6-(1H-pyrazol-1-yl)pyridin-3-yl]carbonyl}-phenyl)-propyl]amino}-butanamide] | 3.9 µM | 1 to 5 µM | 
2 | CC[C@@H](N[C@H](C)CC(N)=O)c1ccc(Cl)c(C(=O)c2ccc(C#N)nc2)c1F [Example 141, (3R)-3-{[(1R)-1-{4-chloro-3-[(6-cyanopyridin-3-yl)carbonyl]-2-fluorophenyl}propyl]-amino}butanamide] | 0.47 µM | < 1 µM | 
3 | CC[C@@H](N[C@H](C)CC(N)=O)c1ccc(Cl)c(C(=O)c2cc[n+]([O-])cc2)c1F [Example 143, (R)-3-{(R)-1-[4-Chloro-2-fluoro-3-(1-oxy-pyridine-4-carbonyl)-phenyl]propylamino}-butyramide] |  |  | Assay A % inhibition average: 59% @ 30 uM; IC50 [3]: < 30 µM
4 | CC[C@@H](N[C@@H](C)CC(N)=O)c1ccc(Cl)c(C(=O)c2ccc(C(N)=O)cc2)c1F [Example 146, 4-({3-[(1R)-1-{[(2S)-1-Carbamoylpropan-2-yl]amino}propyl]-6-chloro-2-fluorophenyl}carbonyl)-benzamide] |  |  | inhibition at 0.3 µM: 56%
5 | CC[C@@H](N[C@H](C)CC(N)=O)c1ccc(Cl)c(C(=O)c2ccc(=O)[nH]c2)c1F [Example 148, (3R)-3-{[(1R)-1-{4-chloro-2-fluoro-3-[(6-oxo-1,6-dihydropyridin-3-yl)carbonyl]-phenyl}propyl]amino}-butanamide] |  |  | inhibition at 10 µM: 43%; IC50 [3]: < 30 µM
6 | CC[C@@H](N[C@H](C)CC(N)=O)c1ccc(C)c(C(=O)c2ccccc2)c1F [Example 151, (3R)-3-{[(1R)-1-(3-benzoyl-2-fluoro-4-methylphenyl)propyl]amino}butanamide] | 0.49 µM |  | 
7 | CC[C@@H](N[C@H](C)CC(N)=O)c1ccc(OC)c(C(=O)c2ccccc2)c1F [Example 153, (3R)-3-{[(1R)-1-(3-benzoyl-2-fluoro-4-methoxyphenyl)propyl]amino}butanamide] | 0.49 µM |  | 
8 | C[C@H](CC(N)=O)N[C@@H](c1ccc(Cl)c(C(=O)c2ccc(N)nc2)c1F)C1CC1 [Example 155, (3R)-3-{[(R)-{3-[(6-aminopyridin-3-yl)carbonyl]-4-chloro-2-fluorophenyl}(cyclo-propyl)methyl]amino}-butanamide] | 1 µM | 1 to 5 µM | 
9 | CC[C@@H](N[C@H](C)CC(N)=O)c1ccc(Cl)c(C(=O)c2ccc(N)cn2)c1F [Example 156, (3R)-3-{[(1R)-1-{3-[(5-aminopyridin-2-yl)carbonyl]-4-chloro-2-fluorophenyl}propyl]-amino}butanamide] | 2 µM | 1 to 5 µM | 
10 | CC[C@@H](N[C@H](C)CC(N)=O)c1ccc(F)c(C(=O)c2ccccc2)c1F [Example 158, (3R)-3-{[(1R)-1-(3-benzoyl-2,4-difluorophenyl)propyl]-amino}butanamide] | 0.35 µM |  | 
11 | CC[C@@H](N[C@H](C)CC(N)=O)c1ccc(Cl)c(C(=O)c2ccc(-n3cc(CO)cn3)nc2)c1F [Example 160, (3R)-3-{[(1R)-1-[4-chloro-2-fluoro-3-({6-[4-(hydroxymethyl)-1H-pyrazol-1-yl]pyridin-3-yl}carbonyl)phenyl]-propyl]amino}-butanamide] | 4.2 µM | 1 to 5 µM | 
12 | CC[C@@H](NCCO)c1ccc(Cl)c(C(=O)c2cccnc2)c1F [Example 163, 2-{[(1R)-1-{4-Chloro-2-fluoro-3-[(pyridin-3-yl)carbonyl]phenyl}propyl]amino}ethan-1-ol] |  |  | inhibition at 10 µM: 62%; IC50 [3]: < 30 µM
13 | CC[C@@H](NCC(N)=O)c1ccc(Cl)c(C(=O)c2cccnc2)c1F [Example 164, 2-{[(1R)-1-{4-Chloro-2-fluoro-3-[(pyridin-3-yl)carbonyl]phenyl}propyl]amino}-acetamide] |  |  | inhibition at 10 µM: 37%
14 | CC[C@@H](N[C@@H](C)CO)c1ccc(Cl)c(C(=O)c2cccnc2)c1F [Example 165, (2S)-2-{[(1R)-1-{4-chloro-2-fluoro-3-[(pyridin-3-yl)carbonyl]phenyl}-propyl]amino}-propan-1-ol] | 1.4 µM | 1 to 5 µM | 
15 | CC[C@@H](N[C@H](C)CO)c1ccc(Cl)c(C(=O)c2cccnc2)c1F [Example 166, (2R)-2-{[(1R)-1-{4-chloro-2-fluoro-3-[(pyridin-3-yl)carbonyl}phenyI}-propyl]amino}propan-1-ol] | 6.3 µM |  | IC50 [3]: < 30 µM
16 | CC[C@@H](N[C@H](C)C(N)=O)c1ccc(Cl)c(C(=O)c2cccnc2)c1F [Example 169, (2R)-2-{[(1R)-1-{4-chloro-2-fluoro-3-[(pyridin-3-yl)carbonyl]phenyI}-propyl]amino}propanamide] |  |  | Assay A % inhibition average (@ 100 uM): 53% @ 100 uM; IC50 [3]: < 30 µM
17 | CC[C@@H](N[C@@H](C)C(N)=O)c1ccc(Cl)c(C(=O)c2cccnc2)c1F [Example 170, (2S)-2-{[(1R)-1-{4-chloro-2-fluoro-3-[(pyridin-3-yl)carbonyl]phenyl}-propyl]amino}-propanamide] |  | 1 to 5 µM | inhibition at 3 µM (@ 3 uM): 55%

Row | Structure (SMILES) | IC50 [1] | IC50 [2] | also measured
18 | CC[C@@H](NCC(C)(C)C(N)=O)c1ccc(Cl)c(C(=O)c2cccnc2)c1F [Example 172, 3-{(R)-1-[4-Chloro-2-fluoro-3-(pyridine-3-carbonyl)-phenyl]-propylamino}-2,2-dimethyl-propionamide] | 1.6 µM | 1 to 5 µM | 
19 | CC[C@H](NCCO)c1ccc(Cl)c(C(=O)c2ccc(N)nc2)c1F [Example 173, 2-{[(1S)-1-{3-[(6-aminopyridin-3-yl)carbonyl]-4-chloro-2-fluorophenyl}propyl]-amino}ethan-1-ol] | 0.13 µM | < 1 µM | 
20 | CC[C@@H](NC[C@@H](C)C(N)=O)c1ccc(Cl)c(C(=O)c2cccnc2)c1F.Cl [Example 174, 2R)-3-{[(1R)-1-{4-chloro-2-fluoro-3-[(pyridin-3-yl)carbonyl]phenyl}-propyl]amino}-2-methylpropanamide HCl (1:1] |  |  | Assay A % inhibition average: 47% @ 30 uM; IC50 [3]: < 30 µM
21 | CC[C@@H](NCCCO)c1ccc(Cl)c(C(=O)c2ccccc2)c1F [Example 181, 3-{[(1R)-1-(3-benzoyl-4-chloro-2-fluorophenyl)propyl]-amino}propan-1-ol] | 0.26 µM |  | 
22 | CC[C@H](NCCCO)c1ccc(Cl)c(C(=O)c2ccccc2)c1F [Example 182, 3-{[(1S)-1-(3-benzoyl-4-chloro-2-fluorophenyl)propyl]-amino}propan-1-ol] | 0.038 µM |  | 
23 | CCC(NC1(C(N)=O)CC1)c1ccc(Cl)c(C(=O)c2ccccc2)c1F (stereo not shown) [Example 184, 1-[1-(3-Benzoyl-4-chloro-2-fluorophenyl)-propylamino]-cyclopropanecarboxylic acid amide.HCl] |  |  | inhibition at 10 µM: 22%
24 | NC(=O)CCN[C@@H](c1ccc(Cl)c(C(=O)c2cnc(N)cn2)c1F)C1CC1 [Example 185, 3-{[(R)-{3-[(5-aminopyrazin-2-yl)carbonyl]-4-chloro-2-fluorophenyl}(cyclo-propyl)methyl]amino}-propanamide] | 0.6 µM |  | 
25 | CC[C@@H](N[C@@H](C)CC(N)=O)c1ccc(Cl)c(C(=O)c2ccc(CO)cc2)c1F [Example 186, (3S)-3-{[(1R)-1-(4-chloro-2-fluoro-3-{[4-(hydroxymethyl)-phenyl]carbonyl}phenyl)propyl]amino}-butanamide] | 0.11 µM |  | 
26 | CC[C@@H](N[C@H](C)CC(N)=O)c1ccc(Cl)c(C(=O)c2ccc(CO)cc2)c1F [Example 187, (3R)-3-{[(1R)-1-(4-chloro-2-fluoro-3-{[4-(hydroxymethyl)-phenyl]-carbonyl}phenyl)-propyl]amino}butanamide] | 0.66 µM |  | 
27 | CC[C@@H](N[C@@H](C)CC(N)=O)c1ccc(Cl)c(C(=O)c2cccc(CO)c2)c1F [Example 188, (3S)-3-{[(1R)-1-(4-chloro-2-fluoro-3-{[3-(hydroxymethyl)-phenyl]carbonyl}phenyl)-propyl]amino}butanamide] | 0.14 µM |  | 
28 | CC[C@@H](N[C@H](C)CC(N)=O)c1ccc(Cl)c(C(=O)c2cccc(CO)c2)c1F [Example 189, (3R)-3-{[(1R)-1-(4-chloro-2-fluoro-3-{[3-(hydroxymethyl)-phenyl]-carbonyl}phenyl)-propyl]amino}butanamide] | 0.54 µM |  | 
29 | C[C@H](CC(N)=O)N[C@@H](c1ccc(Cl)c(C(=O)c2ccc(N)c(C#N)c2)c1F)C1CC1 [Example 190, (3R)-3-{[(R)-{3-[(4-amino-3-cyanophenyl)carbonyl]-4-chloro-2-fluorophenyl}(cyclopropyl)methyl]amino}butanamide] | 0.37 µM |  | IC50 [3]: < 30 µM
30 | CC[C@@H](N)c1ccc(OC)c(C(=O)c2ccc(F)cc2)c1F [Example 191, (1R)-1-{2-fluoro-3-[(4-fluorophenyl)carbonyl]-4-methoxyphenyl}-propan-1-amine] | 1.1 µM | 1 to 5 µM | 
31 | CC[C@@H](N[C@@H](C)CC(N)=O)c1ccc(Cl)c(C(=O)c2cnc(NC)cn2)c1F [Example 192, (3S)-3-{[(1R)-1-(4-chloro-2-fluoro-3-{[5-(methylamino)-pyrazin-2-yl]carbonyl}-phenyl)propyl]-amino}butanamide] | 0.63 µM | < 1 µM | 
32 | C[C@@H](CC(N)=O)N[C@@H](c1ccc(Cl)c(C(=O)c2cnc(N)cn2)c1F)C1CC1 [Example 194, (3S)-3-{[(R)-{3-[(5-aminopyrazin-2-yl)carbonyl]-4-chloro-2-fluorophenyl}(cyclo-propyl)methyl]amino}-butanamide] |  |  | inhibition at 0.3 µM: 28%
33 | C[C@H](CC(N)=O)N[C@@H](c1ccc(Cl)c(C(=O)c2cnc(N)cn2)c1F)C1CC1 [Example 195, (3R)-3-{[(R)-{3-[(5-aminopyrazin-2-yl)carbonyl]-4-chloro-2-fluorophenyl}(cyclo-propyl)methyl]amino}-butanamide] | 6.2 µM |  | IC50 [3]: < 30 µM
